IC50 data for 30 molecules are collected here from ChEMBL document CHEMBL2406973, “Synthesis of novel diarylamino-1,3,5-triazine derivatives as FAK inhibitors with anti-angiogenic activity” (Bioorg Med Chem Lett, 2013).

In test [1] the test system is HUVEC. In words: Antiangiogenic activity in HUVEC assessed as inhibition of VEGF-stimulated proliferation after 72 hrs by WST-1 assay. It is filed as functional, cell-based. Conditions: Homo sapiens. For orientation: Tetrazolium assays rely on reduction of a dye to a coloured formazan, in cell work by metabolically active cells.
Test [2] addresses Focal adhesion kinase 1 (Homo sapiens, UniProt Q05397). In words: Inhibition of pre-activated recombinant full length FAK (unknown origin) using ULight labeled poly(Glu/Tyr) as substrate after 1.6 hrs by TR-FRET assay. On the technique in general: In TR-FRET formats the signal depends on donor and acceptor labels being close together.

Molecules are shown by their SMILES.

Chain of Focal adhesion kinase 1 (Q05397 whole entry): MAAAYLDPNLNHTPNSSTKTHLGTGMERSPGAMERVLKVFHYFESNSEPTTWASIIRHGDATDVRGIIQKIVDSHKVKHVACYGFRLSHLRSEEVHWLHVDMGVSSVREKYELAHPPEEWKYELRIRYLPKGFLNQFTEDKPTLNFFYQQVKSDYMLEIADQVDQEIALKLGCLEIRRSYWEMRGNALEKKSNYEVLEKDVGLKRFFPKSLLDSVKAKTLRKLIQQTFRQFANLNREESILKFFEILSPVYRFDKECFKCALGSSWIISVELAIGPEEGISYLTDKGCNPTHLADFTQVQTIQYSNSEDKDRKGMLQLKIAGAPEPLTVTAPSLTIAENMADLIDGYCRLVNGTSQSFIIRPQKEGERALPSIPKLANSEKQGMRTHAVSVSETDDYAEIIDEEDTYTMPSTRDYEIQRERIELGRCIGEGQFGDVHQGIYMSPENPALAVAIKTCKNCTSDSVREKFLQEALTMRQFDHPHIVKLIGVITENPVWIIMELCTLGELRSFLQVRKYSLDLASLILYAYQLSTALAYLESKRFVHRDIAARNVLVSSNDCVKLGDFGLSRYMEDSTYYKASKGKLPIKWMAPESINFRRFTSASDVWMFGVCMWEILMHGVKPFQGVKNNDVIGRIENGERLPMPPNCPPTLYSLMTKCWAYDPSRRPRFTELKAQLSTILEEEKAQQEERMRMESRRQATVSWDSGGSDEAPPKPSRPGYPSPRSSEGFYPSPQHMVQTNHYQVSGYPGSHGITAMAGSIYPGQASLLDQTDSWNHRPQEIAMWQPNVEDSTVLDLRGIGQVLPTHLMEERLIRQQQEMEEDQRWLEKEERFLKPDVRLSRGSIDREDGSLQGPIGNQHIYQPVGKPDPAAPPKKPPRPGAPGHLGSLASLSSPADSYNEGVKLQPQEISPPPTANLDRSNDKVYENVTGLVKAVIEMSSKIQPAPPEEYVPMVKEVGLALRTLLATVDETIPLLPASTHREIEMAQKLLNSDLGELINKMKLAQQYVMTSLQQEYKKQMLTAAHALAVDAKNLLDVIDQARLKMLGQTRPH

The IC50 is the point on the concentration scale where inhibition reaches its midpoint. As for `CC(C)NC(=O)c1ccccc1Nc1ncnc(Nc2ccc(CN)cc2)n1`, the concentration for half-maximal inhibition (IC50) in test [1] came out at 3.2 µM; in test [2] it was 1 µM.
On the same counts, the results for `CCC(CC)NC(=O)c1ccccc1Nc1ncnc(Nc2ccc(CN)cc2)n1` are 1.4 µM and 1.9 µM.
For `COc1cc(Nc2ncnc(Nc3ccccc3C(=O)NC(C)C)n2)cc(OC)c1OC` the same measures were 4 µM and 2.2 µM.
On the same counts, the results for `COc1cc(Nc2ncnc(Nc3ccccc3C(=O)NC3CC3)n2)cc(OC)c1OC` are 5.9 µM and 6.1 µM.
In the case of `CCC(CC)NC(=O)c1ccccc1Nc1ncnc(Nc2cc(OC)c(OC)c(OC)c2)n1`, the IC50 in test [1] is 5.3 µM; in test [2], 6 µM.
For `COc1cc(Nc2ncnc(Nc3ccccc3C(=O)NC3CCCC3)n2)cc(OC)c1OC` the same measures were 3.9 µM and 5.2 µM.
For `COc1cc(Nc2ncnc(Nc3ccccc3C(=O)NCCO)n2)cc(OC)c1OC` the same measures were 17.5 µM and 23.8 µM.
On the same counts, the results for `COc1cc(Nc2ncnc(Nc3ccccc3C(=O)NCCN(C)C)n2)cc(OC)c1OC` are 9.4 µM and 10.2 µM.
In the case of `COC(=O)c1ccccc1Nc1ncnc(Nc2cc(OC)c(OC)c(OC)c2)n1`, the IC50 in test [1] is 23.2 µM; in test [2], 17.9 µM.
`COc1ccc(Nc2ncnc(Nc3ccccc3NS(C)(=O)=O)n2)c(OC)c1`: the results for the IC50 in test [1] and in test [2] were 2.7 µM and 6.1 µM, respectively.
`CNC(=O)c1ccccc1Nc1ncnc(Nc2ccc(OC)cc2OC)n1`: the concentration for half-maximal inhibition (IC50) came to 6.5 µM in test [1] and 1.5 µM in test [2].
As for `COc1ccc(Nc2ncnc(Nc3ccccc3NC(C)=O)n2)c(OC)c1`, the values for the IC50 in test [1] and in test [2] were 11.2 µM and 21.1 µM, respectively.
Regarding `CNC(=O)c1ccccc1Nc1ncnc(Nc2ccc(N3CCOCC3)cc2OC)n1`, the IC50 in test [1] was found to be 1.5 µM.
Take `CNC(=O)c1ccccc1Nc1ncnc(Nc2cc(CCC(N)=O)c(OC)c(OC)c2)n1`: the values for the 50% inhibitory concentration (IC50) in test [1] and in test [2] were 1.3 µM and 0.3 µM, respectively.
Take `CS(=O)(=O)Nc1ccccc1Nc1ncnc(Nc2ccc(CN)cc2)n1`: the IC50 in test [1] amounted to 3.9 µM; in test [2], 2.3 µM.
Turning to `CNC(=O)c1ccccc1Nc1ncnc(Nc2ccc(CN)cc2)n1`, the results for the IC50 in test [1] and in test [2] were 2.1 µM and 0.16 µM, respectively.
For `CCNC(=O)c1ccccc1Nc1ncnc(Nc2ccc(CN)cc2)n1`, the IC50 in test [1] worked out at 2.8 µM; in test [2] it was 0.44 µM.
On to `COc1cc(Nc2nc(Cl)nc(Nc3ccccc3NS(C)(=O)=O)n2)cc(OC)c1OC`, for which the IC50 in test [1] was determined as 9.5 µM; in test [2], 41.9 µM.
On the same counts, the results for `COc1cc(Nc2ncnc(Nc3ccccc3NS(C)(=O)=O)n2)cc(OC)c1OC` are 6.1 µM and 5.1 µM.
As to `CNc1nc(Nc2cc(OC)c(OC)c(OC)c2)nc(Nc2ccccc2NS(C)(=O)=O)n1`, the IC50 was 34.2 µM in test [1] and 65.9 µM in test [2].
As to `COc1cc(Nc2nc(Cl)nc(Nc3cccc(NS(C)(=O)=O)c3)n2)cc(OC)c1OC`, the IC50 in test [1] came out at 13.3 µM; in test [2], 57.8 µM.
On the same counts, the results for `COc1cc(Nc2ncnc(Nc3cccc(NS(C)(=O)=O)c3)n2)cc(OC)c1OC` are 7.2 µM and 9.2 µM.
For the molecule `CNc1nc(Nc2cccc(NS(C)(=O)=O)c2)nc(Nc2cc(OC)c(OC)c(OC)c2)n1`, the half-maximal inhibitory concentration (IC50) is 10 µM in test [1] and 41.3 µM in test [2].
With `COc1cc(Nc2nc(C)nc(Nc3ccccc3NS(C)(=O)=O)n2)cc(OC)c1OC`, the IC50 in test [1] stood at 8.5 µM; in test [2] it was 7.9 µM.
On the same counts, the results for `COc1cc(Nc2nc(C)nc(Nc3ccccc3NC(C)=O)n2)cc(OC)c1OC` are 18.8 µM and 50.8 µM.
Regarding `COC(=O)Nc1ccccc1Nc1nc(C)nc(Nc2cc(OC)c(OC)c(OC)c2)n1`, the half-inhibitory concentration (IC50) came out at 15.8 µM in test [1] and 35.9 µM in test [2].
For `COc1cc(Nc2nc(C)nc(Nc3ccccc3NC(=O)N(C)C)n2)cc(OC)c1OC` the same measures were 27.3 µM and 54.3 µM.
On to `COc1cc(Nc2nc(Nc3ccccc3NC(C)=O)nc(C(F)(F)F)n2)cc(OC)c1OC`, for which the IC50 came out at 33.3 µM in test [1] and 126 µM in test [2].
With `CNC(=O)c1ccccc1Nc1ncnc(Nc2cc(OC)c(OC)c(OC)c2)n1`, the IC50 in test [1] worked out at 2.5 µM; in test [2], 0.4 µM.
Take `CNC(=O)c1ccccc1Nc1nc(Nc2ccc(N3CCOCC3)cc2OC)ncc1Cl`: the IC50 in test [1] was 1 µM.
